{
  "source": "paper PMC2222791",
  "about": "“Induction of the oxidative catabolism of retinoid acid in MCF-7 cells” (British Journal of Cancer, 1997)",
  "key": {"[1]": {"system": "RbTE cells and HL-60 leukaemia cells", "parameters": "method as in Jetten et al, 1987", "details": "ref Jetten et al, 1987; cited from earlier work"}, "[2]": {"system": "MCF-7 cells", "assay": "Viability of MCF-7 cells after preincubation (trypan blue)", "details": "24 h preincubation, varying concentrations, results not shown"}, "[3]": {"system": "all-trans-RA catabolism in MCF-7 cells", "assay": "Inhibition of induced all-trans-RA catabolism in MCF-7 cells", "type": "cell-based, human", "details": "for IC50: MCF-7 cells preincubated 24 h with 10^-6 M all-trans-RA, 10^-7 M [3H]all-trans-RA as substrate, mean ± s.d., three experiments in duplicate; for Inhibition of induced all-trans-RA catabolism, in words: induced MCF-7 cells, 10^-7 M [3H]all-trans-RA, CH55 up to 10 μM; for Activity in inhibiting all-trans-RA catabolism, times less than all-trans-RA: relative to all-trans-RA, from IC50 values of Table 2"}, "[4]": {"system": "BA-HAN-IC", "details": "BA-HAN-IC cells; ref Ramp et al, 1994; cited from earlier work"}, "[5]": {"system": "MCF-7 cells"}, "[6]": {"system": "RARs", "parameters": "method as in Duell et al, 1992", "details": "ref Duell et al, 1992; cited from earlier work"}, "[7]": {"system": "F9 embryonal carcinoma cells", "parameters": "method as in Willams and Napoli, 1985", "details": "ref Willams and Napoli, 1985; cited from earlier work"}, "[8]": {"system": "HL-60 leukaemia cells", "parameters": "method as in Bollag and Holdener, 1992; Matsushima et al, 1992", "details": "ref Bollag and Holdener, 1992, Matsushima et al; cited from earlier work"}, "[9]": {"system": "rat Dunning R3327G tumour homogenates", "details": "cited from earlier work"}, "[10]": {"system": "rat liver homogenates", "details": "cited from earlier work"}, "[11]": {"system": "all-trans-RA catabolism in MCF-7 cells", "assay": "Enzyme characteristics of induced all-trans-RA catabolism (Michaelis-Menten, Lineweaver-Burk)", "type": "cell-based, human", "details": "MCF-7 cells preincubated 24 h with 10^-6 M all-trans-RA; substrate 5 x 10^-9 to 10^-6 M [3H]all-trans-RA; overall formation of polar metabolites; read-out: Estimated Km value of induced all-trans-RA catabolism", "description": "(§1) British Journal of Cancer (1997) 75(8), 1098-1104 ? […] Quantification was performed by optical densitometric scanning. […] Data are shown as mean ? s.d."}, "[12]": {"system": "all-trans-RA catabolism in MCF-7 cells", "assay": "Induction of all-trans-RA catabolism in MCF-7 cells by preincubation with retinoids (microcolumn assay)", "details": "for RA catabolism (% of control): 24 h preincubation"}, "[13]": {"system": "hamster liver microsomes", "details": "read-out: Km value of all-trans-RA catabolism, cited from earlier work"}, "[14]": {"system": "CRABP-II mRNA", "assay": "Northern blotting for CRABP mRNA in MCF-7 cells", "type": "cell-based, human", "description": "as §1"}, "[15]": {"details": "read-out: Km value of all-trans-RA catabolism"}, "[16]": {"details": "ref Krekels et al, 1995, read-out: IC50 value for inhibition of all-trans-RA catabolism"}},
  "note": "Values joined by “and” are separate entries in the source; they are usually repeats but may differ in a detail not shown here. Equal entries are not always repeated. Where two headings read alike, the source gives them in different places. Starred links: 1 amine or outer side, 2 acyl side, 3 side chain; linkers in the order of their positions; H or OH if unused. Positions of bridges follow the written chain, without caps; N, C: chain ends. Non-standard residues stand in square brackets, D forms with d. Residues, ends and D or L forms follow the SMILES beside them. Chains are numbered I, II in the order given. Actinocin(9to1) = Cc1c2oc3c(C)ccc(C(=O)[*:1])c3nc-2c(C(=O)[*:2])c(N)c1=O; NMeV = CN[C@H](C(=O)O)C(C)C; Sar = CNCC(=O)O",
  "data": [
    {"smiles": "CC(C)(C)c1cc(C(=O)/C=C/c2ccc(C(=O)O)cc2)cc(C(C)(C)C)c1", "note": "[CH55, (E)-4-[3-(3,5-di-tert-butylphenyl)-3-oxo-l-propenyl]benzoic acid]", "values": [
      {"measurement": "Biological activity, times higher than that of all-trans-RA", "setting": "[1]", "value": "20-25 times"},
      {"measurement": "Viability of the cells after preincubation", "setting": "[2]", "value": "did not decrease viability"},
      {"measurement": "IC50", "setting": "[3]", "value": "> 10000", "unit": "nM"},
      {"measurement": "Inhibition of induced all-trans-RA catabolism, in words", "setting": "[3]", "value": "did not inhibit"}
    ]},
    {"smiles": "CC1=C(/C=C/C(C)=C/C=C/C(C)=C/C(=O)O)C(C)(C)CCC1=O", "note": "[4-keto-all-trans-RA, 4-Keto-all-trans-retinoic acid]", "values": [
      {"measurement": "Differentiation-inducing activity relative to all-trans-RA", "setting": "[4]", "value": "significantly weaker"},
      {"measurement": "Viability of the cells after preincubation", "setting": "[5]", "value": "did not decrease viability"},
      {"measurement": "IC50", "setting": "[3]", "value": 370, "unit": "nM"},
      {"measurement": "Inhibition of induced all-trans-RA catabolism, in words", "setting": "[3]", "value": "activity similar to that of all-trans-RA"}
    ]},
    {"smiles": "CC1=C(/C=C/C(C)=C/C=C/C(C)=C/C(=O)O)C(C)(C)CCC1O", "note": "(centres unmarked) [4-hydroxy-RA]", "values": [
      {"measurement": "Potency in stimulating gene transcription, times less potent than RA", "setting": "[6]", "value": "2-10 times"}
    ]},
    {"smiles": "CC1=C(/C=C/C(C)=C/C=C/C(C)=C/CO)C(C)(C)CCC1", "note": "[retinol, Retinol]", "values": [
      {"measurement": "Viability of the cells after preincubation", "setting": "[2]", "value": "did not decrease viability"},
      {"measurement": "Activity in inducing differentiation relative to all-trans-RA", "setting": "[7]", "value": "approximately 10%"},
      {"measurement": "Inhibition of induced all-trans-RA catabolism, in words", "setting": "[3]", "value": "least active natural compound"}
    ]},
    {"smiles": "CC1=C(/C=C/C(C)=C\\C=C\\C(C)=C\\C(=O)O)C(C)(C)CCC1", "note": "[9-cis-RA, 9-cis-retinoic acid]", "values": [
      {"measurement": "Viability of the cells after preincubation", "setting": "[2]", "value": "did not decrease viability"},
      {"measurement": "Potency in inducing differentiation relative to all-trans-RA", "setting": "[8]", "value": "equipotent to 10-fold as active"},
      {"measurement": "IC50", "setting": "[3]; Homo sapiens, MCF7", "value": 1890, "unit": "nM"},
      {"measurement": "Activity in inhibiting all-trans-RA catabolism, times less than all-trans-RA", "setting": "[3]", "value": "about 15 times"}
    ]},
    {"smiles": "CC1=C(/C=C/C(C)=C/C=C/C(C)=C/C(=O)O)C(C)(C)CCC1", "note": "[all-trans-RA, All-trans-retinoic acid]", "values": [
      {"measurement": "Km", "setting": "[9]; [15]", "value": 1.7, "unit": "µM"},
      {"measurement": "Km", "setting": "[10]; [15]", "value": 4.3, "unit": "µM"},
      {"measurement": "Km", "setting": "[11]", "value": 0.33, "unit": "µM"},
      {"measurement": "Viability of the cells after preincubation", "setting": "[2]", "value": "did not decrease viability"},
      {"measurement": "Preincubation period to maximal induction", "setting": "[12]; 10^-6 M all-trans-RA", "value": "16 h and 16 to 24 h"},
      {"measurement": "Time for induction to decrease to the constitutive level after wash-out", "setting": "[12]; 16 h induction with 10^-6 M all-trans-RA, then wash-out", "value": "≤ 24", "unit": "h"},
      {"measurement": "Onset of induction detectable", "setting": "[12]; preincubation with all-trans-RA", "value": "≤ 60", "unit": "min"},
      {"measurement": "Km", "setting": "[13]; ref Roberts et al (1980)", "value": 1.1, "unit": "µM"},
      {"measurement": "Km", "setting": "[13]; ref Van Wauwe et al (1988)", "value": 12.5, "unit": "µM"},
      {"measurement": "Reduction in CRABP-II mRNA", "setting": "[14]; 10^-7 M all-trans-RA, 24 h", "value": 20, "unit": "%"},
      {"measurement": "Expression of CRABP-I mRNA after treatment", "setting": "[14]; CRABP-I mRNA, results not shown", "value": "remained low"},
      {"measurement": "Inhibition of induced all-trans-RA catabolism, in words", "setting": "[3]", "value": "most active compound"}
    ]},
    {"smiles": "CC1=C(/C=C/C(C)=C/C=C/C(C)=C\\C(=O)O)C(C)(C)CCC1", "note": "[13-cis-RA, 13-cis-retinoic acid]", "values": [
      {"measurement": "Viability of the cells after preincubation", "setting": "[2]", "value": "did not decrease viability"},
      {"measurement": "Potency in inducing differentiation relative to all-trans-RA", "setting": "[8]", "value": "equipotent"},
      {"measurement": "Activity in inhibiting all-trans-RA catabolism, times less than all-trans-RA", "setting": "[3]", "value": 5, "unit": "times"}
    ]},
    {"smiles": "Clc1cccc(C(c2ccc3[nH]cnc3c2)n2ccnc2)c1.Clc1cccc(C(c2ccc3[nH]cnc3c2)n2ccnc2)c1.O=C(O)/C=C/C(=O)O.O=C(O)/C=C/C(=O)O.O=C(O)/C=C/C(=O)O", "note": "(stereo not drawn) [liarozole-fumarate, 5-[3(chlorophenyl)(lH-imidazole-l-yl)methyl]-IH-benzimidazole (E)-2-butenedioate(2:3)]", "values": [
      {"measurement": "IC50", "setting": "[9]; [16]", "value": 260, "unit": "nM"},
      {"measurement": "IC50", "setting": "[10]; [16]", "value": 140, "unit": "nM"},
      {"measurement": "Inhibition of induced all-trans-RA catabolism, in words", "setting": "[3]", "value": "potency similar to that of all-trans-RA"}
    ]},
    {"smiles": "Cc1c2oc3c(C)ccc(C(=O)N[C@@H]4C(=O)N[C@H](C(C)C)C(=O)N5CCC[C@H]5C(=O)N(C)CC(=O)N(C)[C@@H](C(C)C)C(=O)O[C@@H]4C)c3nc-2c(C(=O)N[C@@H]2C(=O)N[C@H](C(C)C)C(=O)N3CCC[C@H]3C(=O)N(C)CC(=O)N(C)[C@@H](C(C)C)C(=O)O[C@@H]2C)c(N)c1=O", "note": "[actinomycin D] (I: T[dV]P[Sar][NMeV] / II: T[dV]P[Sar][NMeV]; ester I:1-I:C, II:1-II:C; linker I:N-II:N via Actinocin(9to1))", "values": [
      {"measurement": "RA catabolism (% of control)", "setting": "[12]; actinomycin D 0.1 μg ml-1 with 10^-6 M all-trans-RA", "value": "14.3 % of control"},
      {"measurement": "RA catabolism (% of control)", "setting": "[12]; actinomycin D 1 μg ml-1 with 10^-6 M all-trans-RA", "value": "11.7 % of control"}
    ]},
    {"smiles": "CC1=C(/C=C/C(C)=C/C=C/C(C)=C/C(=O)O)C(C)(C)CCC1=O", "note": "[4-keto-RA]", "values": [
      {"measurement": "Potency in stimulating gene transcription, times less potent than RA", "setting": "[6]", "value": "2-10 times"}
    ]},
    {"smiles": "CC1=C(/C=C/C(C)=C/C=C/C(C)=C\\C(=O)O)C(C)(C)CCC1=O", "note": "[4-keto-13-cis-RA, 4-keto-13-cis-retinoic acid]", "values": [
      {"measurement": "Viability of the cells after preincubation", "setting": "[5]", "value": "did not decrease viability"},
      {"measurement": "IC50", "setting": "[3]", "value": 6600, "unit": "nM"},
      {"measurement": "Activity in inhibiting all-trans-RA catabolism, times less than all-trans-RA", "setting": "[3]", "value": "about 50 times"}
    ]},
    {"smiles": "CC1=C(/C=C/C(C)=C/C=C/C(C)=C/C(=O)O)C(C)(C)CCC1O", "note": "(stereo not drawn) [4-hydroxy-all-trans-RA]", "values": [
      {"measurement": "Differentiation-inducing activity relative to all-trans-RA", "setting": "[4]", "value": "significantly weaker"}
    ]}
  ]
}
